In US7235532B2, “Angiogenic agents and their uses” (Centre National de la Recherche Scientfique, priority 2000, dated 2007):

Key:
[1] = system: chick embryo chorioallantoic membrane; assay: chick embryo chorioallantoic membrane (CAM) vascularization; format: in vivo
Method: FIGS. 2a, 2b and 2c: Effect of AcSDKP (SEQ ID NO: 1) and of analogues thereof on the vascularization of the chick embryo chorioallantoic membrane (CAM). FIG. 2A discloses SEQ ID NOS: 1 and 27, respectively, in order of appearance.
The following experiments were carried out on the chick embryo chorioallantoic membrane experimental model and the activity of AcSDKP (SEQ ID NO: 1) and of analogues thereof was tested on this model. […] The increase in the density of vascularization varies depending on the dose studied, with a maximum effect for AcSDKP (SEQ ID NO: 1) and AcSDKP-NH2 (SEQ ID NO: 27) at concentrations of between 10^−9 M and 10^−7 M (FIGS. 2a, 2b and 2c).

[2] = system: immortalized HUVEC cell line (EA.hy926); assay: growth of immortalized HUVEC cell line, in vitro; format: cell-based, human
Source text: (§1) FIGS. 1a, 1b and 1c: AcSDKP (SEQ ID NO: 1) stimulates the growth of bovine (BBC) and human (HUVEC and EA.hy926) endothelial cells, in vitro.
(§2) The mitogenic effect of AcSDKP (SEQ ID NO: 1) manifests itself at concentrations ranging between 10^−6 and 10^−11 M, with a maximum for 10^−9 M.

[3] = system: normal rats; assay: angiography of abdominal walls after injection into abdominal muscle; format: in vivo, rat
Method: In these experiments, AcSDKP (SEQ ID NO: 1) was injected into the abdominal muscle in normal rats (treatment twice a day for […]). […] It should be emphasized that this effect remains over time (observations made one month after the start of treatment).

[4] = system: endothelial cells (EA.hy926); assay: formation of vascular tubes in Matrigel in vitro; format: cell-based, human; details: 6 hours exposure
Method: FIG. 3: Effect of AcSDKP (SEQ ID NO: 1) on the formation of vascular tubes, in vitro, by endothelial cells (EA.hy926) in Matrigel.
The maximum stimulations, corresponding to an increase of 60% and 58%, respectively, were observed after exposure of the cells to the tetrapeptide for 6 hours.

[5] = system: total marrow cells; assay: adhesion of marrow cells to components of the extracellular matrix, in vitro; format: cell-based; details: fibronectin, collagen IV and laminin
Source text: The optimum concentration of AcSDKP (SEQ ID NO: 1) in this type of model is between 10^−6 and 10^−8 M.

[6] = system: Sprague-Dawley rat; assay: vascular invasion in vivo of Matrigel placed under the skin
Source text: In vivo, AcSDKP (SEQ ID NO: 1) induces, in a dose-dependent manner, the vascular invasion of Matrigel placed under the skin of the animal (Sprague-Dawley rat). In this experiment, AcSDKP (SEQ ID NO: 1) was mixed with the Matrigel before implantation. Seven days later, the animals were sacrificed and the Matrigel samples were taken and fixed in formol, and were the subject of a histological study. […] For the quantification, the vascular sections were counted on 10 consecutive fields (surface area =32 mm^2) from the richest zone.

[7] = system: Sprague-Dawley rats; assay: pedicled ventral skin flap model; format: in vivo, rat; details: 5 μg/kg/injection s.c., after surgery then 5 times at 12 hour intervals
Source text: Given the ability of angiogenic factors to stimulate, in vivo, the formation of new vessels in lesioned regions which are characterized by a deficiency in vascularization, we studied the effectiveness of AcSDKP (SEQ ID NO: 1) in promoting tissue lesion repair, using a skin flap model. In fact, the distal necrosis of skin flaps generally results from rupturing of the vascular network and therefore from an insufficiency of arterial flow, which poses considerable problems in the fields of plastic and reconstructive surgery.
Pedicled ventral skin flaps (6×6 cm) (left inguinal pedicle) were made in the Sprague-Dawley rats.
AcSDKP (SEQ ID NO: 1) was administered at the dose of 5 μg/kg/ injection (250 μl/injection) immediately after the surgical intervention, and then again 5 times at 12 hour intervals. […] From a macroscopic point of view, the decrease in necrosis is accompanied by the increase in the density of the vascularization over the internal surface of the flaps.

[8] = system: human umbilical cord vein endothelial cells (HUVEC); assay: growth of human umbilical cord vein endothelial cells, in vitro; format: cell-based
Source text: as §1, §2

[9] = system: HUVEC human endothelial cells; assay: adhesion of HUVEC to extracellular matrix components, preliminary experiments; format: cell-based; details: compared with marrow cell results
Source text: It is clearly established that these interactions between endothelial cells and the extracellular matrix are determinant for the neovascularization and are involved at various steps of angiogenesis. Specifically, the extracellular matrix influences the proliferation and the migration of vascular endothelial cells, and also their ability to differentiate and to organize into capillaries in order to form new functional vessels suited to their tissue microenvironment.

[10] = system: endothelial cells originating from bovine brain capillaries (BBC); assay: growth of endothelial cells originating from bovine brain capillaries, in vitro; format: cell-based
Source text: as §1, §2

For CH3CO-Ser-Asp-Lys-Pro-NH2 [AcSDKP-NH2], which “neovascularization of CAM” value [1] is on record?
Its value is “significantly induced neovascularization”.

Which results are given for “CH3CO-Ser-Asp-Lys-Pro-OH (Ac-SDKP-OH) [AcSDKP, tetrapeptide acetyl-Ser-Asp-Lys-Pro]”?
concentration of maximum mitogenic effect ([2]; EA.hy926): 10^−9 M; growth of endothelial cells ([2]; EA.hy926, in vitro): significantly stimulates the growth; vascularization of abdominal walls (angiography) ([3]; 5 μg/kg/injection into abdominal muscle, twice a day, sacrifice day 8): more developed vascularization; vascularization of abdominal walls (angiography) ([3]; 50 μg/kg/injection into abdominal muscle): No significant modification of the vascularization; increase of total surface area of the vascular network compared to control (maximum stimulation) ([4]; 10^−9 M): 60%; increase of total surface area of the vascular network compared to control (maximum stimulation) ([4]; 10^−11 M): 58%; adhesion of marrow cells to extracellular matrix components [5]: increases the adhesion; Number of vessels (% increase compared to control) ([6]; 10^−5 M, Exp. 1): 60%; Number of vessels (% increase compared to control) ([6]; 10^−5 M, Exp. 2): 185%; Number of vessels (% increase compared to control) ([6]; 10^−6 M, Exp. 2): 121%; Number of vessels (% increase compared to control) ([6]; 10^−7 M, Exp. 1): 294%; Number of vessels (% increase compared to control) ([6]; 10^−7 M, Exp. 2): 118%; Number of vessels (% increase compared to control) ([6]; 10^−7 M, Exp. 3): 139%; Number of vessels (% increase compared to control) ([6]; 10^−8 M, Exp. 2): 223%; Number of vessels (% increase compared to control) ([6]; 10^−9 M, Exp. 1): 108%; Number of vessels (% increase compared to control) ([6]; 10^−9 M, Exp. 2): 61%; Number of vessels (% increase compared to control) ([6]; 10^−9 M, Exp. 3): 197%; vessels within the Matrigel compared to control Matrigel ([6]; mixed with Matrigel before implantation, 7 days): much greater number of vessels; neovascularization of CAM [1]: significantly induced neovascularization; increase in survival of the flaps compared to the controls [7]: 10%; concentration of maximum mitogenic effect [8]: 10^−9 M; growth of endothelial cells ([8]; in vitro): significantly stimulates the growth; adhesion to extracellular matrix components [9]: Comparable results; concentration of maximum mitogenic effect [10]: 10^−9 M; growth of endothelial cells ([10]; in vitro): significantly stimulates the growth

“FGFb: fibroblast growth factor used as comparison angiogenic factor” was tested. Which “Number of vessels (% increase compared to control)” value ([6]; 50 ng/ml, Exp. 2) did it give?
Its value is 297%.
